This note sets out measurements from US10323027B2, “2,3-dihydro-4H-1,3-benzoxazin-4-one derivatives as modulators of cholinergic muscarinic M1 receptor” (Takeda Pharmaceutical Company Limited, priority 2015, dated 2019).

The structures appear in SMILES notation. Counter-ions that a name gives are not always drawn.

For this experiment, the target named is T1, human M1 receptor (hCHRM1) (Homo sapiens, UniProt P11229).
T1 construct: expressed in transfected cells
T1 sequence (P11229 1-460): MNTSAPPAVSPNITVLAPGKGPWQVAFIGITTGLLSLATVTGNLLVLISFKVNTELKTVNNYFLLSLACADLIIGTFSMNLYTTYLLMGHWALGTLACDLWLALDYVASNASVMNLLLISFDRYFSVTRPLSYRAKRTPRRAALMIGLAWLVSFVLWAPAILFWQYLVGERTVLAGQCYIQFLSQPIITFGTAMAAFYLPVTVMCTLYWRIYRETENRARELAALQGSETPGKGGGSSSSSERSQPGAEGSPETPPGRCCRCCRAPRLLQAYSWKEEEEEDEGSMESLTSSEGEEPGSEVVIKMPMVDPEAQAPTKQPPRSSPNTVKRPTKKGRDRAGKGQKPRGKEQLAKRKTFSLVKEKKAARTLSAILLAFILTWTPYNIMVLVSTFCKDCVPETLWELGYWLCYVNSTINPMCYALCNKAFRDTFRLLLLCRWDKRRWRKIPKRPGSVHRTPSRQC
Briefly: Measurement of M1 receptor positive allosteric modulator (M1PAM) activity, Ca2+ fluorescence by FLIPRtetra (Experimental Example 1). Type of experiment: cell-based. The following applies: for activity (%) at 10 μM: 10 μM test compound, 100% = acetylcholine 1 μM, 0% = DMSO; for EC50: inflection point of concentration-dependent curve, in presence of acetylcholine at EC20 (0.8-1.0 nM), CHO-K1 cells expressing hCHRM1, read-out: IP value. As for the experimental part:
Measurement of M1 Receptor Positive Allosteric Modulator (M1PAM) Activity
The activity of a test compound in the presence of acetylcholine at EC20 concentration (final concentration 0.8-1.0 nM), which affords an action corresponding to about 20% of the maximum activity, was measured as PAM activity. The method is as follows. CHO-K1 cells stably expressing a human M1 receptor (hCHRM1) were plated on a 384-well black clear bottom plate (BD Falcon) at 5,000 cells/well, and cultured in an incubator at 37° C., 5% CO2 for 1 day. The medium in the cell plate was removed, and a dye solution (prepared by adding Recording medium (DOJINDO LABORATORIES) to a final concentration of 1×concentration, Fluo-4 AM (DOJINDO LABORATORIES) to a final concentration of 2.5 μg/mL, Pluronic F127 (DOJINDO LABORATORIES) to a final concentration of 0.08%, and probenecid (DOJINDO LABORATORIES) to a final concentration of 1.25 mM to assay buffer (HBSS (Invitrogen), 20 mM HEPES (Invitrogen), 0.1% BSA (Wako Pure Chemical Industries, Ltd.))) was added at 30 μL/well. The cells were left standing in the incubator at 37° C., 5% CO2 for 30 min, and further left standing at room temperature for 30 min. A test compound prepared by diluting with assay buffer containing 3.2-4.0 nM acetylcholine was added at 10 μL/well, and the fluorescence was measured by FLIPRtetra (Molecular Devices) for 1 min every 1 second. With the definition that the amount of change in the fluorescence on addition of acetylcholine (final concentration 1 μM) is 100% and that on addition of DMSO instead of a test compound is 0%, the activity (%) of the test compound was calculated, and the inflection point in the concentration-dependent curve of the test compound was calculated as IP values.

For `Cc1cc2c(cc1Cc1ccc(-n3cccn3)nc1)C(=O)N([C@H]1CCC[C@@H]1O)CO2` [Example 14, 3-((1S,2S)-2-hydroxycyclopentyl)-7-methyl-6-((6-(1H-pyrazol-1-yl)pyridin-3-yl)methyl)-2,3-dihydro-4H-1,3-benzoxazin-4-one], the “activity (%) at 10 μM” value was 106% and the EC50 worked out at 15 nM.

With `Cc1c(Cc2ccc(Cl)nc2)cc2c(c1C)OCN([C@H]1COCC[C@@H]1O)C2=O` (relative stereo) [Example 31, 1,5-anhydro-2-(6-((6-chloropyridin-3-yl)methyl)-7,8-dimethyl-4-oxo-2H-1,3-benzoxazin-3(4H)-yl)-2,4-dideoxy-threo-pentitol], the “activity (%) at 10 μM” value was 99% and the EC50 came to 17 nM.

As to `COc1c(Cc2ccc(-n3cccn3)nc2)cc2c(c1F)OCN([C@H]1CCC[C@@H]1O)C2=O` (single isomer, unassigned) [Example 55, 8-fluoro-3-(trans-2-hydroxycyclopentyl)-7-methoxy-6-((6-(1H-pyrazol-1-yl)pyridin-3-yl)methyl)-2,3-dihydro-4H-1,3-benzoxazin-4-one (optical isomer)], the “activity (%) at 10 μM” value is on record as 98% and the EC50 worked out at 14 nM.

In the case of `O=C1NCOc2c1cc(Cc1ccc(Cl)nc1)c1ccccc21` [Example 80, 6-((6-chloropyridin-3-yl)methyl)-2,3-dihydro-4H-naphtho[2,1-e][1,3]oxazin-4-one], the “activity (%) at 10 μM” value was 97% and the EC50 stood at 81 nM.

For `Cc1ccc(Cc2cc3c(c(F)c2C)OCN([C@H]2CCC[C@@H]2O)C3=O)cn1` [Example 20, 8-fluoro-3-((1S,2S)-2-hydroxycyclopentyl)-7-methyl-6-((6-methylpyridin-3-yl)methyl)-2,3-dihydro-4H-1,3-benzoxazin-4-one], the “activity (%) at 10 μM” value turned out to be 85% and the EC50 amounted to 24 nM.

Consider `O=C1c2cc(Cc3ccc(Cl)nc3)c3ccccc3c2OCN1[C@H]1CCC[C@@H]1O` [Example 43, 6-((6-chloropyridin-3-yl)methyl)-3-((1S,2S)-2-hydroxycyclopentyl)-2,3-dihydro-4H-naphtho[2,1-e][1,3]oxazin-4-one], for which the “activity (%) at 10 μM” value is listed as 93% and the EC50 is 2.4 nM.

Regarding `COc1ccc(Cc2cc3c(c4ccccc24)OCN([C@H]2COCC[C@@H]2O)C3=O)cn1` [Example 46, 1,5-anhydro-2,4-dideoxy-2-(6-((6-methoxypyridin-3-yl)methyl)-4-oxo-2H-naphtho[2,1-e][1,3]oxazin-3(4H)-yl)-L-threo-pentitol], the “activity (%) at 10 μM” value amounted to 109% and the EC50 was found to be 4.9 nM.

As for `Cc1ccc(Cc2cc3c(c4ccccc24)OCN(CC2CCCO2)C3=O)cn1` (centres unmarked) [Example 68, 6-((6-methylpyridin-3-yl)methyl)-3-(tetrahydrofuran-2-ylmethyl)-2,3-dihydro-4H-naphtho[2,1-e][1,3]oxazin-4-one], the “activity (%) at 10 μM” value worked out at 90% and the EC50 amounted to 48 nM.

Turning to `Cc1cc2c(cc1Cc1ccc(Cl)nc1)C(=O)N([C@H]1CCC[C@@H]1O)CO2` [Example 34, 6-((6-chloropyridin-3-yl)methyl)-3-((1S,2S)-2-hydroxycyclopentyl)-7-methyl-2,3-dihydro-4H-1,3-benzoxazin-4-one], the “activity (%) at 10 μM” value is listed as 96% and the EC50 stood at 53 nM.

For the molecule `Cc1ccc(Cc2cc3c(cc2C)OCN([C@H]2CCC[C@@H]2O)C3=O)cn1` [Example 64, 3-((1S,2S)-2-hydroxycyclopentyl)-7-methyl-6-((6-methylpyridin-3-yl)methyl)-2,3-dihydro-4H-1,3-benzoxazin-4-one], the “activity (%) at 10 μM” value worked out at 99% and the EC50 was determined as 34 nM.

On to `Cc1cc2c(cc1Cc1ccc(-c3cn(C)nc3C)nc1)C(=O)N(CC1CCCO1)CO2` (centres unmarked) [Example 82, 6-((6-(1,3-dimethyl-1H-pyrazol-4-yl)pyridin-3-yl)methyl)-7-methyl-3-(tetrahydrofuran-2-ylmethyl)-2,3-dihydro-4H-1,3-benzoxazin-4-one], for which the “activity (%) at 10 μM” value turned out to be 93% and the EC50 came to 90 nM.

As to `O=C1c2cc(Cc3ccc(Cl)nc3)c3ccccc3c2OCN1[C@H]1COCC[C@@H]1O` [Example 125, 1,5-anhydro-2-(6-((6-chloropyridin-3-yl)methyl)-4-oxo-2H-naphtho[2,1-e][1,3]oxazin-3(4H)-yl)-2,4-dideoxy-L-threo-pentitol], the “activity (%) at 10 μM” value stood at 89% and the EC50 turned out to be 3.8 nM.

Take `Cc1cc2c(cc1Cc1ccc(-n3cccn3)nc1)C(=O)N([C@H]1CCCC[C@@H]1O)CO2` (relative stereo) [Example 36, 3-(trans-2-hydroxycyclohexyl)-7-methyl-6-((6-(1H-pyrazol-1-yl)pyridin-3-yl)methyl)-2,3-dihydro-4H-1,3-benzoxazin-4-one]: the “activity (%) at 10 μM” value turned out to be 108% and the EC50 was found to be 12 nM.

For `Cc1ccc(Cc2cc3c(c(C)c2C)OCN([C@H]2COCC[C@@H]2O)C3=O)cn1` (single isomer, unassigned) [Example 7, 1,5-anhydro-2,4-dideoxy-2-(7,8-dimethyl-6-((6-methylpyridin-3-yl)methyl)-4-oxo-2H-1,3-benzoxazin-3(4H)-yl)-threo-pentitol monohydrochloride (optical isomer)], the “activity (%) at 10 μM” value stood at 108% and the EC50 was 7.9 nM.

For `COc1ccc(Cc2cc3c(cc2C)OCN([C@H]2COCC[C@@H]2O)C3=O)cc1` (relative stereo) [Example 86, 1,5-anhydro-2,4-dideoxy-2-(6-(4-methoxybenzyl)-7-methyl-4-oxo-2H-1,3-benzoxazin-3(4H)-yl)-threo-pentitol], the “activity (%) at 10 μM” value was found to be 99% and the EC50 was found to be 100 nM.

As to `Cc1c(Cc2ccc(-c3cnn(C)c3)nc2)cc2c(c1C)OCN([C@H]1CCCC[C@@H]1O)C2=O` (relative stereo) [Example 49, 3-(trans-2-hydroxycyclohexyl)-7,8-dimethyl-6-((6-(1-methyl-1H-pyrazol-4-yl)pyridin-3-yl)methyl)-2,3-dihydro-4H-1,3-benzoxazin-4-one], the “activity (%) at 10 μM” value stood at 108% and the EC50 is 8 nM.

For the molecule `Cc1c(Cc2ccc(Cl)nc2)cc2c(c1C)OCN([C@H]1CCC[C@@H]1O)C2=O` [Example 8, 6-((6-chloropyridin-3-yl)methyl)-3-((1S,2S)-2-hydroxycyclopentyl)-7,8-dimethyl-2,3-dihydro-4H-1,3-benzoxazin-4-one], the “activity (%) at 10 μM” value amounted to 105% and the EC50 is 9.6 nM.

On to `Cc1ccc(Cc2cc3c(c(Cl)c2C)OCN([C@H]2CCC[C@@H]2O)C3=O)cn1` [Example 25, 8-chloro-3-((1S,2S)-2-hydroxycyclopentyl)-7-methyl-6-((6-methylpyridin-3-yl)methyl)-2,3-dihydro-4H-1,3-benzoxazin-4-one], for which the “activity (%) at 10 μM” value amounted to 101% and the EC50 worked out at 4.2 nM.

On to `Cc1ccc(Cc2cc3c(c(C)c2C)OCN([C@H]2CCC[C@@H]2O)C3=O)cn1` [Example 11, 3-((1S,2S)-2-hydroxycyclopentyl)-7,8-dimethyl-6-((6-methylpyridin-3-yl)methyl)-2,3-dihydro-4H-1,3-benzoxazin-4-one], for which the “activity (%) at 10 μM” value is listed as 95% and the EC50 was determined as 8.5 nM.
